{
  "source": "patent US20140271605A1",
  "about": "“STABLE BIOACTIVE SUBSTANCES AND METHODS OF MAKING” (ADVANCED BIONUTRITION CORP., priority 2013, published 2014)",
  "test": "Stability testing of the herbicides mixture suspension",
  "assay_type": "physicochemical",
  "settings": "40° C. for 30 days",
  "description": "Stability testing of the herbicides mixture suspension: The commercial solutions containing Glyphosate or Round-Up are mixed together, and tested along with the stable Round-Up and Glyphosate mixed suspensions of the present invention. The liquids placed in an oven at 40° C. for 30 days. The remaining activities of the herbicides in the samples are measured following standard protocols.",
  "data": [
    {"smiles": "O=C(O)CNCP(=O)(O)O", "note": "[Glyphosate]", "values": [
      {"measurement": "remaining activity of the herbicide, free commercial solutions mixed together", "result": "No Glyphosate activity is detected"}
    ]}
  ]
}
